Experimental data reported in paper PMC2990756, “Quantitative High-Throughput Screening Identifies 8-Hydroxyquinolines as Cell-Active Histone Demethylase Inhibitors” (PLoS ONE, 2010).
Like-named read-outs stand apart in the source and are kept apart here.

Legend:
Format in all cases: biochemical
[1] = biological target: T1, formaldehyde dehydrogenase (FDH) (Pseudomonas putida, UniProt P46154); experiment: FDH coupling enzyme counterscreen; settings: Table S1, FDH counterscreen; for IC50: unit not in table, from Figure 2, read-out: qHTS Data: jmjd2e fdh IC50
T1 construct: purchased Sigma-Aldrich
T1 sequence (P46154 whole entry): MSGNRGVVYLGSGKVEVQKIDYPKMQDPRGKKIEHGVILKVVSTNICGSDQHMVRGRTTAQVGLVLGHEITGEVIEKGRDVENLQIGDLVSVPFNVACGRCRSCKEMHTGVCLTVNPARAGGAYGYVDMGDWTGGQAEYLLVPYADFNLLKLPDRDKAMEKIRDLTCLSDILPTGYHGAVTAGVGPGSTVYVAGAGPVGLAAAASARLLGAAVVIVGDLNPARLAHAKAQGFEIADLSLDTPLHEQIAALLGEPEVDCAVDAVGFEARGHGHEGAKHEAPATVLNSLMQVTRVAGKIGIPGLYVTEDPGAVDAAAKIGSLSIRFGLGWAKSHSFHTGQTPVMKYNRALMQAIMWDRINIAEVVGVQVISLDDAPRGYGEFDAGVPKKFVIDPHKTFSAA
From the text: Dimethylsulfoxide certified ACS grade (DMSO) was from Fisher, Inc. HEPES buffer was obtained from Gibco. […] Black solid-bottom 1,536-well assay plates were from Greiner Bio-One (Monroe, NC).

JMJD2E (KDM4E) = biological target: T2, JMJD2E (KDM4E) (Homo sapiens, UniProt B2RXH2); experiment: qHTS fluorescence FDH-coupled JMJD2E demethylase assay
T2 construct: The catalytic domain of human JMJD2E (residues 1–337); His6 (N); made in house; host or cells: E. coli
T2 sequence (B2RXH2 1-337): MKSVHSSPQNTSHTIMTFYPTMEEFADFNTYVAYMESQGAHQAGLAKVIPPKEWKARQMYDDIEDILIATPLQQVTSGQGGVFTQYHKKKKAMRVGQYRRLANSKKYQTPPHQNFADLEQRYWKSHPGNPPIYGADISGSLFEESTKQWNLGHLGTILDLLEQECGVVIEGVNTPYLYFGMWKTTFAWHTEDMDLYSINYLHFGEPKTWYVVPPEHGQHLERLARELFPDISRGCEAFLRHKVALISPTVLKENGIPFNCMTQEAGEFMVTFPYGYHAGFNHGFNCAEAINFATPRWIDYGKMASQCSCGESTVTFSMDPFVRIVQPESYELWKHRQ

JMJD2E = biological target: T3, JMJD2E (Homo sapiens, UniProt B2RXH2); experiment: JMJD2E FDH-coupled assay under low and high iron conditions (iron chelation profile); parameters: The catalytic domain of human JMJD2E (residues 1–337); His6 (N); made in house; host or cells: E. coli; settings: Table S1; for IC50: unit not in table, from Figure 2
T3 sequence (B2RXH2 1-337): T2 sequence (B2RXH2 1-337)
Method: The prioritized compounds were also evaluated in the screening assay using two different ferrous ion concentrations (termed high iron and low iron, respectively), in order to assess their propensity for iron chelation.
The ratio of IC50 values under high iron to low iron was calculated for each compound.

[2] = Figure 3, substituted 8-hydroxyquinolines against JMJD2E, read-out: IC50 /μM (qHTS IC50, FDH-coupled assay)
[3] = Table S1, unit not in table, from Figure 2, read-out: qHTS Data: jmjd2e IC50

Structure (SMILES) | qHTS Data: jmjd2e fdh CurveClass [1] | also measured
CC(CCc1ccccc1)NC(=O)CN1CCN(c2ccc(O)cc2)CC1 (centres unmarked) [compound 24833440] | Inactive | –
CCNc1nc(C(=O)O)nc(N2CCOCC2)n1 [compound 24789924] | Inactive | –
Oc1ccc(COCc2ccccc2)c2cccnc12 [compound 848472] | – | IC50 (JMJD2E (KDM4E); [2]): 36 µM
Cc1ccc2ccc(C(Nc3ccccn3)c3ccccc3)c(O)c2n1 (centres unmarked) [compound 14737227] | – | IC50 (JMJD2E (KDM4E); [3]): 39.8 µM
O=C(CN1CCN(Cc2ccccc2)CC1)NC(c1ccccc1)c1ccccc1.O=C(O)C(=O)O [compound 24822653] | Inactive | –
Cc1ccc(SCCCCN2CCNCC2)cc1.O=C(O)C(=O)O [compound 17504558] | Inactive | –
COc1cccc(CN2CCN(C(=O)c3ccc(-c4ccccc4)cc3)CC2)c1OC.O=C(O)C(=O)O [compound 24807835] | Inactive | –
CCCCn1c(=O)[nH]c2nc3cc(NC(C)=O)ccc3nc2c1=O [compound 26671554] | – | IC50 [1]: 11.2 µM
COc1cc(C2C3=C(CCCC3=O)Nc3c2c(C)nn3-c2cccc(C)c2)cc(OC)c1O (centres unmarked) [compound 26724424] | Inactive | –
COC(=O)CCC(=O)OC1(C)C(=O)C=C2C=C(C3CC3)N(CCc3ccccn3)C=C2C1=O (centres unmarked) [compound 26725368] | Inactive | –
O=C(O)C(=O)O.c1cc(CN2CCN(C3CCCCCC3)CC2)ccn1 [compound 24817627] | Inactive | –
COc1cc(CNCCN2CCOCC2)ccc1OCc1c(Cl)cccc1Cl.Cl [compound 17505294] | Inactive | –
COCCN1C=C2C(=O)C(C)(OC(=O)CCc3ccccc3)C(=O)C=C2C=C1c1ccc(C#N)cc1 (centres unmarked) [compound 26725518] | Poor quality curve | –
O=C(Cc1ccccc1)N1CCN(Cc2ccccn2)CC1 [compound 4263376] | Inactive | –
Oc1cc(O)c2c(c1)OC(c1cc(O)c(O)c(O)c1)C(O)C2 (centres unmarked) [compound 26749553] | – | IC50 (JMJD2E (KDM4E); [3]): 1.41 µM; qHTS Data: jmjd2e fas20um CurveClass (JMJD2E; high iron): Poor quality curve; IC50 (JMJD2E; high iron, head says 20 µM FAS, read-out: qHTS Data: jmjd2e fas20um IC50): 3.16 µM; IC50 (JMJD2E; low iron 2.5 µM FAS, read-out: qHTS Data: jmjd2e fas2.5um IC50): 2.82 µM
Fc1ccc(/C=C2\CCCC3=C2Nc2ncnn2C3c2ccc(F)cc2)cc1 (centres unmarked) [compound 14745056] | – | IC50 [1]: 10 µM
CCOc1ccc2ccccc2c1/C=N/NC(=O)CNC(=O)C(c1ccccc1)c1ccccc1 [compound 17512004] | – | IC50 [1]: 10 µM
Clc1ccc(SCCN2CCNCC2)cc1.O=C(O)C(=O)O [compound 24783981] | Inactive | –
CC1CCN(CC(=O)NCCc2ccc(F)cc2)CC1.O=C(O)C(=O)O [compound 24804760] | Poor quality curve | –
Oc1cccc2ccc(/C=C/c3cccs3)nc12 [compound 14734630] | – | IC50 (JMJD2E (KDM4E); [2]): > 39 µM
O=C(CN1CCCCCC1)NCC1CCCO1.O=C(O)C(=O)O (centres unmarked) [compound 24790169] | Inactive | –
COc1ccccc1NC(=O)c1sc2ncn(Cc3ccccc3C)c(=O)c2c1C [SID 17408386] | – | IC50 (JMJD2E (KDM4E); Figure 2, 100 nM JMJD2E, 10 µM FAS, read-out: IC50 values in μM, qHTS): 4.5 µM
Cc1noc(C)c1C(=O)NNc1ccc(C(C)C)cc1 [compound 26728365] | Inactive | –
Oc1ccc(CNc2cccc(C(F)(F)F)c2)c2cccnc12 [compound 50122416] | – | IC50 (JMJD2E (KDM4E); [2]): 7.9 µM
Cc1cc(N(C)/N=C/c2ccccc2)nc(-c2ccccc2O)n1 [compound 24801833] | – | IC50 [1]: 39.8 µM
Cc1cccc(NCc2ccc(O)c3ncccc23)c1 [compound 24790252] | Inactive | –
CN(C)c1cc(N/N=C/c2ccc(Cl)cc2)nc(N(C)C)n1 [compound 24813304] | Poor quality curve | IC50 [1]: 14.1 µM
O=C(CN1CCN(c2ncccn2)CC1)N1CCCC1.O=C(O)C(=O)O [compound 24790164] | Inactive | –
COc1ccc(Cl)cc1CSc1ncn[nH]1 [compound 26662682] | – | IC50 [1]: 0.32 µM
O=C(Nc1ccccc1C(F)(F)F)c1ncn[nH]1 [compound 24822488] | Poor quality curve | IC50 [1]: 22.4 µM
